From patent EP0989131B1, “THIENOTRIAZOLODIAZEPINE COMPOUNDS AND MEDICINAL USES THEREOF” (priority 1996, dated 1998)
Like-named read-outs stand apart in the source and are kept apart here.

Legend:
[1] = tested on: VCAM-1 expression in human umbilical vein-derived endothelial cells (HUVEC); assay: Inhibitory effect on TNF alpha-induced VCAM-1 expression in HUVEC (cell ELISA); assay type: cell-based; settings: for IC50: tumour necrosis factor α 20 U/ml, 5 hr
Description: (§1) HUVEC was suspended in 199 medium containing 20% fetal calf serum, 20 µg/ml endothelial cell growth factor derived from bovine brain, and 100 µg/ml heparin, plated into 96-well microculture plates coated with collagen, and cultured at 37°C in 5% CO2. When cells grew to confluence, the cells received tumour necrosis factor α (20 U/ml for VCAM-1 expression induction, 100 U/ml for E-selectin expression induction) and the test compound, which was followed by further culture for 5 hr. The cells were washed once with 199 medium and mouse anti-human VCAM-1 monoclonal antibody (2 µg/ml) or rat anti-human E-selectin monocolnal antibody (2 µg/ml) was added. The cells were stood for 1 hr at room temperature. The cells were washed twice and peroxidase-conjugated anti-mouse immunoglobulin antibody or anti-rat immunoglobulin antibody was added. The cells were stood for 1 hr at room temperature. The cells were washed 3 times and 2,2'-azino-bis(3-ethylbenzothiazoline-6-sulfonic acid) as a peroxidase substrate was added. The plates were stood for 15 min at room temperature and absorbance at 405 n/490 nm was measured with a 96-well microplate reader, which was used as an indicator of VCAM-1 or E-selectin expression.

[2] = tested on: CD11b expression of human histiocytic leukemia cell line U937; assay: Effect on CD11b expression of human histiocytic leukemia cell line U937 (cell ELISA); assay type: cell-based; settings: U937 cells; for IC50: PDB 10 ng/ml, cultured 3 days, read-out: Inhibitory effect on CD11b expression (IC50)
Description: Effect on the expression of CD11b antigen, which constitutes the α chain of Mac-1, which is one of the adhesion molecules expressing on the surface of leukocytic cells, was investigated. U937 cells were suspended in RPMI1640 medium containing 20% fetal calf serum, plated with phorbol 12,13-dibutyrate (PDB, 10 ng/ml) and the test compound into 96-well filtration plates (30000 cells/well), and cultured for 3 days at 37°C in 5% CO2. After washing the cells once with RPMI1640 medium, rat anti-human CD11b monoclonal antibody (2 µg/ml) was added and the plates were stood for 1 hr under ice-cooling. The cells were washed twice and peroxidase-conjugated anti-rat immunoglobulin antibody (1 µg/ml) was added. The cells were stood for 1 hr under ice-cooling. The cells were washed 3 times and peroxidase substrate (o-phenylenediamine) for coloring was added. The plates were stood for 15 min at room temperature and absorbance at 490 nm was measured with a 96-well microplate reader, which was used as an indicator of CD 11b antigen expression.

[3] = tested on: E-selectin expression in human umbilical vein-derived endothelial cells (HUVEC); assay: Inhibitory effect on TNF alpha-induced E-selectin expression in HUVEC (cell ELISA); assay type: cell-based; settings: for IC50: tumour necrosis factor α 100 U/ml, 5 hr
Description: as §1

[4] = tested on: trinitrobenzenesulfonic acid (TNBS)-induced colitis; assay: Effect on trinitrobenzenesulfonic acid (TNBS)-induced colitis in rat; assay type: in vivo, SD rats; settings: TNBS sensitized rats, 5 days
Description: Colitis was induced by intraintestinal injection of TNBS solution (60 mg/ml in 50% EtOH, 500 µl) to SD rats. Seven days later, rats were subjected to autopsy and large intestine (8 cm from anus) was cut out and weighed. Myeloperoxidase (MPO) activity in the intestinal tissue was measured and taken as an indicator of infiltrated leukocyte count. That is, the intestine was homogenized and a cycle of freeze-thawing of the tissue was repeated 3 times. The supernatant obtained by centrifugation was assayed for MPO activity using peroxidase substrate (o-phenylenediamine). MPO unit in the supernatant was calculated with the commercial MPO as a standard. The increase in intestinal weight and increase in MPO activity determined as above were taken as indicators of the degree of colitis. Test compound was suspended in 0.5% hydroxypropylmethylcellulose (Metolose)solution and administered p.o. ([…]) or intraintestinally (0.2 ml/rat) for 5 days beginning on the day of TNBS injection.

[5] = Toxicity test, repeated oral administration; assay type: in vivo; settings: female rats, repeated oral administration for 10 days, 300 mg/kg
Description: Compound 2 was repeatedly administered orally to female rats for 10 days.

[6] = tested on: carrageenan-induced colitis; assay: Effect on carrageenan-induced colitis in rabbits; assay type: in vivo; settings: 10 mg/kg consecutively from day 0 for 8 weeks, autopsy day 56, control 10.9 ± 2.0, P<0.05 (Mann-Whitney's U-test)
Description: A mixed emulsion of 1% λ-degraded carrageenan and Freund's complete adjuvant was subcutaneously injected to rabbits for sensitization. Starting from the 7th day (day 0) from sensitization, λ-degraded carrageenan (250-1000 mg/day/rabbit) was forcibly administered orally for 8 weeks to induce colitis. The next day (day 56) of the termination of λ-degraded carrageenan intake, the rabbits were subjected to autopsy and disorder in large intestine was scored using abnormal observation of mucosal epithelium of the tissue sample, level of infiltration of inflammatory cells and the like as indices. The test compounds (10 mg/kg) were consecutively administered from day 0 for 8 weeks.

Molecule: Cc1sc2c(c1C)C(c1ccc(Cl)cc1)=N[C@@H](CC(=O)Nc1ccc(O)cc1)c1nnc(C)n1-2.O.O [Compound 2, (S)-2-[4-(4-chlorophenyl)-2,3,9-trimethyl-6H-thieno[3,2-f][1,2,4]triazolo[4,3-a][1,4]diazepin-6-yl]-N-(4-hydroxyphenyl)acetamide dihydrate]
- IC50 ([1]; Homo sapiens): 0.11 µM
- IC50 ([2]; Homo sapiens, U-937, 72 h): < 30 nM
- IC50 ([3]; Homo sapiens): 0.073 µM
- Intestinal weight (mg, mean ± S.D.) ([4]; Table 4A, intraintestinal, 0.01 mg/site, P<0.01 (Dunnett's test)): 499.6 ± 71.7 mg
- Intestinal weight (mg, mean ± S.D.) ([4]; Table 4A, intraintestinal, 0.1 mg/site, P<0.01 (Dunnett's test)): 502.0 ± 51.5 mg
- Intestinal weight (mg, mean ± S.D.) ([4]; Table 4A, intraintestinal, 1 mg/site, P<0.05 (Dunnett's test)): 536.0 ± 62.2 mg
- MPO activity (U/ml, mean ± S.D.) ([4]; Table 4B, intraintestinal, 0.01 mg/site, P<0.01 (Mann-Whitney's U-test)): 0.354 ± 0.081 U/ml
- MPO activity (U/ml, mean ± S.D.) ([4]; Table 4B, intraintestinal, 0.1 mg/site, P<0.01 (Mann-Whitney's U-test)): 0.334 ± 0.069 U/ml
- MPO activity (U/ml, mean ± S.D.) ([4]; Table 4B, intraintestinal, 1 mg/site, P<0.01 (Mann-Whitney's U-test)): 0.345 ± 0.097 U/ml
- Intestinal weight (mg, mean ± S.D.) ([4]; Table 5A, oral, 0.03 mg/kg, significance none (Dunnett's test)): 699.3 ± 163.7 mg
- Intestinal weight (mg, mean ± S.D.) ([4]; Table 5A, oral, 1 mg/kg, P<0.01 (Dunnett's test)): 468.5 ± 47.6 mg
- Intestinal weight (mg, mean ± S.D.) ([4]; Table 5A, oral, 3 mg/kg, P<0.01 (Dunnett's test)): 458.0 ± 34.7 mg
- MPO activity (U/ml, mean ± S.D.) ([4]; Table 5B, oral, 0.3 mg/kg, significance none (Mann-Whitney's U-test)): 1.568 ± 0.538 U/ml
- MPO activity (U/ml, mean ± S.D.) ([4]; Table 5B, oral, 1 mg/kg, P<0.05 (Mann-Whitney's U-test)): 0.769 ± 0.222 U/ml
- MPO activity (U/ml, mean ± S.D.) ([4]; Table 5B, oral, 3 mg/kg, P<0.05 (Mann-Whitney's U-test)): 0.740 ± 0.142 U/ml
- death [5]: No case of death was observed
- mean ± S.E. of score (disorder in large intestine) [6]: 5.3 ± 0.6

Molecule: 5-(2-chlorophenyl)-7-(morpholinocarbonylethyl)-10-methyl-3,4-dihydro-2H,7H-cyclopenta[4,5]thieno[3,2-f][1,2,4]triazolo[4,3-a][1,4]diazepine [Comparison Compound]
- VCAM-1 expression inhibitory effect relative to that of Compound 2 ([1]; ratio to Compound 2): not more than 1/90
- IC50 [1]: > 10 µM
- IC50 [2]: > 3000 nM
- activity relative to the activity of Compound 2 (CD11b expression) ([2]; ratio to Compound 2): not more than 1/100
- E-selectin expression inhibitory effect relative to the activity of Compound 2 ([3]; ratio to Compound 2): not more than 1/130
- IC50 [3]: > 10 µM

Molecule: Cc1sc2c(c1C)C(c1ccc(Cl)cc1)=N[C@@H](CC(=O)Nc1ccc(O)cc1)c1nnc(C)n1-2 [Compound 1, (S)-2-[4-(4-chlorophenyl)-2,3,9-trimethyl-6H-thieno[3,2-f][1,2,4]triazolo[4,3-a][1,4]diazepin-6-yl]-N-(4-hydroxyphenyl)acetamide]
- Intestinal weight (mg, mean ± S.D.) ([4]; Table 3A, intraintestinal, 0.01 mg/site, P<0.01 (Dunnett's test)): 501.5 ± 78.3 mg
- Intestinal weight (mg, mean ± S.D.) ([4]; Table 3A, intraintestinal, 0.1 mg/site, P<0.01 (Dunnett's test)): 472.0 ± 43.4 mg
- Intestinal weight (mg, mean ± S.D.) ([4]; Table 3A, intraintestinal, 1 mg/site, P<0.01 (Dunnett's test)): 460.8 ± 52.3 mg
- MPO activity (U/ml, mean ± S.D.) ([4]; Table 3B, intraintestinal, 0.01 mg/site, P<0.05 (Mann-Whitney's U-test)): 0.716±0.158 U/ml
- MPO activity (U/ml, mean ± S.D.) ([4]; Table 3B, intraintestinal, 0.1 mg/site, P<0.05 (Mann-Whitney's U-test)): 0.654±0.109 U/ml
- MPO activity (U/ml, mean ± S.D.) ([4]; Table 3B, intraintestinal, 1 mg/site, P<0.05 (Mann-Whitney's U-test)): 0.676±0.172 U/ml
